Results as given in publication PMC12040169 (PLOS Biology, 2025).

Experiment: in vitro
Conditions: human, hela cells, % viability

**Q.** Which viability at 28.5 h, 10 µM does the source give for CC(C)(C)c1ccc(S(=O)(=O)N2CCSC2)cc1 [CBK095672] here?
**A.** 101%

**Q.** For COc1ncc(-c2cncc(N3CCN(c4ccc(OC)c(OC)c4)CC3)n2)c(OC)n1 [CBK065169], which viability at 28.5 h, 10 µM is on record?
**A.** 89.5%

**Q.** Which viability at 28.5 h, 10 µM does the source give for CCOC(=O)CN1C(=O)N2CCCN=C2c2ccc(Cl)cc21 [CBK284401] here?
**A.** 77.8%

**Q.** With Clc1ccc(CN2CCC(Oc3nccnc3OC3CCCCC3)CC2)cc1 [CBK082856T] as the molecule, how does the viability at 28.5 h, 10 µM read?
**A.** 101%

**Q.** With O=C(Cn1cc(Br)ccc1=O)NC1CCCN(Cc2ccccc2)C1 (stereo not drawn) [CBK305668] as the molecule, how does the viability at 28.5 h, 10 µM read?
**A.** 83.7%

**Q.** For Cc1c(Cl)cccc1S(=O)(=O)Nc1nc(CCN2CCOCC2=O)cs1 [CBK003498K], which viability at 28.5 h, 10 µM is on record?
**A.** 87.7%

**Q.** For Cc1[nH]c(=O)c(C#N)cc1C(=O)N(C)Cc1cc(-c2ccncc2)no1 [CBK306859], which viability at 28.5 h, 10 µM is on record?
**A.** 113%

**Q.** Which viability at 28.5 h, 10 µM does the source give for COc1ccc2[nH]c(C(=O)N3CCn4nc(CO)cc4C3)c(C)c2c1 [CBK307302] here?
**A.** 106%

**Q.** Which viability at 28.5 h, 10 µM does the source give for O=C(NCc1ccco1)c1nccnc1-c1ccc(COc2ccc3c(c2)CCCC3)cc1 [CBK050851] here?
**A.** 89.8%

**Q.** For COc1ccc(-c2cc(C(=O)NCCc3ccccn3)cnc2-c2cccc(C)c2)cc1 [CBK036730], which viability at 28.5 h, 10 µM is on record?
**A.** 93.7%

**Q.** Which viability at 28.5 h, 10 µM does the source give for CCn1cc(CN(Cc2ccccc2)CC2CCCO2)c(C)n1 (stereo not drawn) [CBK283265] here?
**A.** 93.7%

**Q.** With CC(NC(=O)N1CCC2(CC1)NC(=O)Cc1ccccc12)c1cccc2ccccc12 (stereo not drawn) [CBK047280] as the molecule, how does the viability at 28.5 h, 10 µM read?
**A.** 84%

**Q.** For CC(=O)Nc1ccc(C(=O)N/C(=C/c2ccccc2)C(=O)O)cc1 [CBK265353], which viability at 28.5 h, 10 µM is on record?
**A.** 87.6%

**Q.** With O=C(NCCCN1CCOCC1)c1c(Cl)cccc1Cl [CBK263631] as the molecule, how does the viability at 28.5 h, 10 µM read?
**A.** 93%

**Q.** Which viability at 28.5 h, 10 µM does the source give for COc1cc(OCc2ccccc2)ccc1CN1CCN(Cc2ccc3c(c2)OCO3)CC1 [CBK074768] here?
**A.** 97.9%

**Q.** For CCOc1ccc2nc(NC(=O)CC)sc2c1 [CBK287295], which viability at 28.5 h, 10 µM is on record?
**A.** 107%

**Q.** Which viability at 28.5 h, 10 µM does the source give for C=CCOc1ccccc1CNc1nc[nH]n1 [CBK267234] here?
**A.** 93.7%

**Q.** For C/C(=N/NC(N)=S)c1ccccc1OCC(=O)O [CBK007123], which viability at 28.5 h, 10 µM is on record?
**A.** 97.9%

**Q.** Which viability at 28.5 h, 10 µM does the source give for O=C(NC(=S)Nc1ccc(N2CCN(Cc3ccccc3F)CC2)cc1)c1ccco1 [CBK268946] here?
**A.** 92.6%

**Q.** For CN1C[C@]2(CC[C@@H](C(=O)N3CCCC3)CC2)Oc2ccccc2C1=O [CBK284886], which viability at 28.5 h, 10 µM is on record?
**A.** 103%

**Q.** For COc1ccc2[nH]c3c(c2c1)CCN(CC(C)O)C31CCN(CCOc2ccccc2)C1 (stereo not drawn) [CBK084612T], which viability at 28.5 h, 10 µM is on record?
**A.** 73%

**Q.** For CCOc1ccccc1NC(=O)NC(=O)C1CCN(C(C)c2ccc(Cl)cc2)CC1 (stereo not drawn) [CBK034899], which viability at 28.5 h, 10 µM is on record?
**A.** 98.4%

**Q.** For COc1ccc(C(=O)Nc2c(C)noc2C)c(OC)n1 [CBK200300], which viability at 28.5 h, 10 µM is on record?
**A.** 104%

**Q.** For CS(=O)(=O)Nc1ncc(-c2ccco2)cc1C(=O)NCCc1c[nH]c2ccccc12 [CBK076569], which viability at 28.5 h, 10 µM is on record?
**A.** 90.5%

**Q.** With COc1ccc(-c2noc(CNC(=O)Cc3ccc(-c4ccccc4)cc3)n2)cc1 [CBK269272] as the molecule, how does the viability at 28.5 h, 10 µM read?
**A.** 105%

**Q.** With CN(C)CCCOC(=O)C(C)(c1ccccc1)c1ccccc1 [CBK265325C] as the molecule, how does the viability at 28.5 h, 10 µM read?
**A.** 118%

**Q.** Which viability at 28.5 h, 10 µM does the source give for COc1ccc(-c2n[nH]c(=S)n2CCC(=O)NCCc2cc(C)n(-c3ccccc3)c2C)cc1 [CBK295632] here?
**A.** 97.6%

**Q.** Which viability at 28.5 h, 10 µM does the source give for Cn1nc(C2CCN(C(=O)CCc3ccccc3)CC2)c2cccnc21 [CBK285050] here?
**A.** 103%

**Q.** With CC(C)(CO)Cn1c(=O)[nH]c2ncc(-c3ccc(C(N)=O)cc3)nc21 [CBK064787] as the molecule, how does the viability at 28.5 h, 10 µM read?
**A.** 88.5%

**Q.** For Cc1cccc(OCC(=O)N2CCN(Cc3ccccn3)CC2)c1 [CBK134023G], which viability at 28.5 h, 10 µM is on record?
**A.** 92.3%

**Q.** For O=C1NCC2(C/C=C/CCOc3ccccc31)CCN(C(=O)CCN1CCCC1=O)CC2 [CBK292016], which viability at 28.5 h, 10 µM is on record?
**A.** 99.3%

**Q.** With COc1ccc(C(=O)N2CCC3(CCN(C(=O)/C=C/c4ccc5c(c4)OCO5)C3)C2)cc1OC (stereo not drawn) [CBK131775] as the molecule, how does the viability at 28.5 h, 10 µM read?
**A.** 96.6%

**Q.** With O=C(CCCOc1ccccc1)N1CCN(c2cccc(Cl)c2)CC1 [CBK304354] as the molecule, how does the viability at 28.5 h, 10 µM read?
**A.** 107%

**Q.** For c1cn2cnnc2c(N2CCOC(c3ccsc3)C2)n1 (stereo not drawn) [CBK306379], which viability at 28.5 h, 10 µM is on record?
**A.** 88.8%

**Q.** For CSc1ccc(-c2nc(NC(=O)C(C)C)cc3ccccc23)cc1 [CBK085735], which viability at 28.5 h, 10 µM is on record?
**A.** 95.5%

**Q.** Which viability at 28.5 h, 10 µM does the source give for CCN(CC)C(=O)c1[nH]c2ccccc2c1NS(=O)(=O)c1cc(Br)ccc1OC [CBK050113] here?
**A.** 92.6%

**Q.** For C#C[C@H]1C[N@@]2CC[C@H]1C[C@@H]2CNS(=O)(=O)c1cccc(C#N)c1 [CBK288753], which viability at 28.5 h, 10 µM is on record?
**A.** 106%

**Q.** Which viability at 28.5 h, 10 µM does the source give for O=C(/C=C/c1ccccc1)NC(NC(=S)Nc1cccc2cccnc12)C(Cl)(Cl)Cl (stereo not drawn) [CBK261046] here?
**A.** 101%

**Q.** Which viability at 28.5 h, 10 µM does the source give for CC(C)(C)OC(=O)NCCNC(=O)Nc1ccccc1C(F)(F)F [CBK056940] here?
**A.** 98.6%

**Q.** For COc1ccc(/C(N)=N/OC(=O)C(C)Oc2ccc(C(C)(C)C)cc2)cc1OC (stereo not drawn) [CBK267378], which viability at 28.5 h, 10 µM is on record?
**A.** 94.9%

**Q.** For Cc1nc(SCCO)c2c(=O)n(C)c(=O)n(CC(C)C)c2n1 [CBK306114], which viability at 28.5 h, 10 µM is on record?
**A.** 85.8%

**Q.** Which viability at 28.5 h, 10 µM does the source give for Cc1cc2ncn(CC(=O)N3CCC(F)CC3)c2cc1C [CBK200266] here?
**A.** 104%

**Q.** For Clc1ccc(CNc2ncc(-c3ccc(N4CCOCC4)cc3)n3ccnc23)cc1Cl [CBK091229], which viability at 28.5 h, 10 µM is on record?
**A.** 84.3%

**Q.** Which viability at 28.5 h, 10 µM does the source give for Cc1c(C(=O)NC(=S)Nc2ccc(O)c(-c3nc4ccccc4s3)c2)oc2ccccc12 [CBK264223] here?
**A.** 93.2%

**Q.** For O=C(c1cc(F)c(F)cc1F)N1CCC2(CCN(C(=O)C3COc4ccccc4O3)C2)C1 (stereo not drawn) [CBK131390], which viability at 28.5 h, 10 µM is on record?
**A.** 107%

**Q.** With O=C(Cn1cccn1)NC(CN1CCCCC1)c1ccccc1 (stereo not drawn) [CBK281726] as the molecule, how does the viability at 28.5 h, 10 µM read?
**A.** 104%

**Q.** With CC(=O)C12CCCCC1CC1C3CC(C)C4(O)CC(O)CCC4(C)C3CCC12C (stereo not drawn) [CBK261479] as the molecule, how does the viability at 28.5 h, 10 µM read?
**A.** 91.8%

**Q.** For O=S(=O)(c1ccccc1)N1Cc2cccc3[nH]cc(c23)C1 [CBK153275], which viability at 28.5 h, 10 µM is on record?
**A.** 102%

**Q.** For COc1nccnc1N1CCN(CCc2ccccc2)CC1 [CBK084228], which viability at 28.5 h, 10 µM is on record?
**A.** 102%

**Q.** With Cc1nnc(SCc2ccc(CSc3nnc(C)c(=O)[nH]3)cc2)[nH]c1=O [CBK268085] as the molecule, how does the viability at 28.5 h, 10 µM read?
**A.** 86.1%

**Q.** With CCN(CC)C(=O)C1CCCN1C(=O)c1ccnc(N(C)C)c1 (stereo not drawn) [CBK305086] as the molecule, how does the viability at 28.5 h, 10 µM read?
**A.** 99.7%

**Q.** With O=C(Nc1nccs1)c1c(O)n(Cc2ccccc2)c2ccccc2c1=O [CBK291173] as the molecule, how does the viability at 28.5 h, 10 µM read?
**A.** 96.6%

**Q.** For C1CN=C(SCCCSC2=NCCCN2)NC1 [CBK278210B], which viability at 28.5 h, 10 µM is on record?
**A.** 110%

**Q.** Which viability at 28.5 h, 10 µM does the source give for CCOc1cc(/C=C2\SC(=S)N(Cc3cccnc3)C2=O)ccc1OCc1cccc(F)c1 [CBK264615] here?
**A.** 112%

**Q.** For Cc1nn(C)c(C)c1CCC(=O)NCC1CCN(c2ccccc2F)C1 (stereo not drawn) [CBK304357], which viability at 28.5 h, 10 µM is on record?
**A.** 96.7%

**Q.** With O=C(Nc1nnc(-c2ccc3c(c2)OCCO3)o1)c1ccccc1F [CBK287405] as the molecule, how does the viability at 28.5 h, 10 µM read?
**A.** 112%

**Q.** For Cn1c(=O)c2c(nc(Nc3ccc(Cl)cc3Cl)n2CC(=O)O)n(C)c1=O [CBK286792], which viability at 28.5 h, 10 µM is on record?
**A.** 90.5%

**Q.** For Cc1nn(C)c(C)c1NC(=O)COc1ccccc1C#N [CBK305850], which viability at 28.5 h, 10 µM is on record?
**A.** 95%

**Q.** With CC(=O)Nc1ccc2n(c1=O)C[C@H]1C[C@@H]2CN(C(=O)COc2ccccc2)C1 [CBK289074] as the molecule, how does the viability at 28.5 h, 10 µM read?
**A.** 89%

**Q.** Which viability at 28.5 h, 10 µM does the source give for N#Cc1c(NC(=O)c2ccc(C(=O)O)cc2C(=O)O)sc2c1CCCC2 [CBK262722] here?
**A.** 105%

**Q.** With CCCN1CCN(Cc2cccc3c2ccn3S(=O)(=O)c2cccs2)CC1 [CBK116196T] as the molecule, how does the viability at 28.5 h, 10 µM read?
**A.** 92%

**Q.** For COc1cccc(-c2nnn(CC(=O)O)n2)c1 [CBK068202], which viability at 28.5 h, 10 µM is on record?
**A.** 94.9%

Same assay, conditions: human, hela cells, % viability, bulk resorufin, single well

**Q.** For Oc1cccc(CN2CCN(c3cccc(Cl)c3)CC2)c1 [CBK261543], which viability at 28.5 h, 10 µM is on record?
**A.** 90.1%
